Measurements reported in the NIST ThermoML archive (doi:10.1016/j.fluid.2014.03.004).

Settings: 101.33 kPa, Liquid; for mass density: Vibrating tube method; for electrical conductivity: Alternating current cell with electrodes; for viscosity: Falling or rolling sphere viscometry

CCCCn1cc[n+](CCC(C)C)c1.O=S(=O)([N-]S(=O)(=O)C(F)(F)F)C(F)(F)F
Settings | electrical conductivity [S/m] | mass density [kg/m3] | viscosity [mPa·s]
293.15 K | – | 1322.37 | –
298.15 K | 0.145 | 1318.1 | 93
303.15 K | – | 1313.65 | 73.2
303.16 K | 0.182 | – | –
313.15 K | 0.273 | 1304.82 | 46.5
323.15 K | 0.389 | 1296.03 | 31.5
333.15 K | 0.529 | 1287.3 | 22.4
343.15 K | 0.694 | 1278.62 | –
353.15 K | – | 1269.99 | 12.6
353.16 K | 0.883 | – | –

CCCCC[n+]1ccn(CCCC)c1.O=S(=O)([N-]S(=O)(=O)C(F)(F)F)C(F)(F)F
Settings | electrical conductivity [S/m] | mass density [kg/m3] | viscosity [mPa·s]
293.15 K | – | 1322.07 | –
298.15 K | 0.164 | 1317.6 | 75.9
303.15 K | – | 1313.16 | 61.5
303.16 K | 0.205 | – | –
313.15 K | 0.303 | 1304.29 | 40.3
323.15 K | 0.427 | 1295.48 | 28
333.15 K | 0.58 | 1286.72 | 20.2
343.15 K | 0.757 | 1278.02 | –
353.15 K | – | 1269.36 | 11.6
353.16 K | 0.96 | – | –

CCCC[n+]1ccn(C2CCCC2)c1.O=S(=O)([N-]S(=O)(=O)C(F)(F)F)C(F)(F)F
Settings | electrical conductivity [S/m] | mass density [kg/m3] | viscosity [mPa·s]
293.15 K | – | 1383.1 | –
298.15 K | 0.197 | 1378.52 | 85.1
303.15 K | – | 1373.96 | 67.9
303.16 K | 0.246 | – | –
313.15 K | 0.361 | 1364.86 | 44.3
323.15 K | 0.504 | 1355.84 | 30.8
333.15 K | 0.668 | 1346.87 | 22.3
343.15 K | 0.878 | 1337.96 | 16.7
353.15 K | 1.11 | 1329.11 | 13
